Data on five compounds can be found in ChEMBL document CHEMBL1201862, “PubChem BioAssay data set” (2004).

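Results reflect a 48-hour exposure of cells in 96-well plates to compound at five concentrations. GI50 = concentration required for 50% inhibition of growth.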 Active and inactive are the calls of the source. Rule as the data show it: active = GI50 up to about 1.1 µM and inactive = higher. Where only a bound is given, the exact number is not on record here.

Among the test systems are UACC-62; NCI-H226; TK-10; LXFL 529; SK-MEL-5; HT-29; SN12C; KM12; HCT-15; SF-539; 786-0; OVCAR-3; LOX IMVI; NCI-H460; SNB-19; SR; SF-295; CCRF-CEM.
Experiment in all cases: NCI-60 cell line screen, 48 h

In the case of `COC(=O)/C=C/C1C(C(=O)OC)C2(C(=O)OC)CCC1(C(=O)OC)N2` (stereo not given), the GI50 in the assay with UACC-62, in the assay on NCI-H226, with TK-10, with LXFL 529, in the assay on SK-MEL-5 and with HT-29 was > 100 µM (inactive) each time. Further, the GI50 was > 100 µM (inactive) with SN12C; > 100 µM (inactive) with KM12; greater than 100 µM with HCT-15; > 100 µM (inactive) with SF-539; > 100 µM (inactive) in the assay with 786-0; > 100 µM (inactive) in the assay with OVCAR-3. For the same compound, the GI50 in the assay on LOX IMVI, in the assay with NCI-H460, in the assay on SNB-19, in the assay with SR, with SF-295 and in the assay with CCRF-CEM was > 100 µM (inactive) throughout.
For `COC(=O)[C@@H]1Cc2c([nH]c3ccccc23)[C@H](c2ccccc2)N1`, the GI50 in the assay on UACC-62 was 50.2 µM (inactive); with NCI-H226, 71.8 µM (inactive); in the assay with TK-10 it was 33 µM (inactive); in the assay with LXFL 529 it was 54.5 µM (inactive); in the assay with SK-MEL-5, 14.7 µM (inactive); in the assay on HT-29 it was 49.3 µM (inactive). For the same compound, the GI50 in the assay with SN12C was 28.2 µM (inactive); in the assay with KM12 it was 36.6 µM (inactive); in the assay on HCT-15 it was 19.4 µM; in the assay on SF-539 it was 26.4 µM (inactive); with 786-0, 37.2 µM (inactive); in the assay on OVCAR-3 it was 31.6 µM (inactive). In addition, the GI50 in the assay with LOX IMVI was 38.9 µM (inactive); with NCI-H460, 34.5 µM (inactive); in the assay on SNB-19, 37.6 µM (inactive); in the assay with SR, 29.2 µM (inactive); in the assay with SF-295 it was 26.2 µM (inactive); with CCRF-CEM, 37.3 µM (inactive).
`CCCc1ccc(/N=C\c2cc(OC)c(OC)c(OC)c2)cc1`: the GI50 in the assay with UACC-62 was > 100 µM (inactive); with NCI-H226, > 100 µM (inactive); with TK-10, > 100 µM (inactive); in the assay with LXFL 529 it was 99.3 µM (inactive); in the assay on SK-MEL-5 it was > 100 µM (inactive); with HT-29 it was > 87.7 µM (inactive). The GI50 in the assay with SN12C is > 100 µM (inactive); in the assay on KM12, > 100 µM (inactive); in the assay on HCT-15, greater than 39.9 µM; in the assay with SF-539 it was > 100 µM (inactive); in the assay on 786-0, > 100 µM (inactive); in the assay with OVCAR-3, > 100 µM (inactive). The GI50 in the assay with LOX IMVI was > 52.1 µM (inactive); in the assay on NCI-H460, > 100 µM (inactive); in the assay on SNB-19, > 100 µM (inactive); in the assay on SR, 55.5 µM (inactive); with SF-295 it was > 100 µM (inactive); in the assay with CCRF-CEM it was 26.6 µM (inactive).
Take `C[C@]12CCc3nn(-c4ccccc4)nc3C1CC[C@@H]1C2CC[C@]2(C)C(=O)CCC12` (stereo not given in full): the GI50 with UACC-62, in the assay with NCI-H226, with TK-10, with LXFL 529, with SK-MEL-5 and in the assay on HT-29 was > 100 µM (inactive) throughout. Also, the GI50 in the assay with SN12C was > 100 µM (inactive); in the assay with KM12 it was > 100 µM (inactive); in the assay with HCT-15 it was greater than 100 µM; with SF-539, > 100 µM (inactive); in the assay on 786-0, > 100 µM (inactive); in the assay on OVCAR-3, > 100 µM (inactive). Further, the GI50 with LOX IMVI is 82.2 µM (inactive); in the assay with NCI-H460 it was > 100 µM (inactive); with SNB-19, > 100 µM (inactive); in the assay on SR it was > 100 µM (inactive); with SF-295, > 100 µM (inactive); in the assay on CCRF-CEM, > 100 µM (inactive).
With `Nc1c([N+](=O)[O-])nc(Cl)c2nncn12`, the GI50 with UACC-62 was > 100 µM (inactive); in the assay with NCI-H226, > 100 µM (inactive); in the assay with TK-10, > 100 µM (inactive); in the assay with LXFL 529, > 78.9 µM (inactive); with SK-MEL-5 it was > 100 µM (inactive); with HT-29, 96.8 µM (inactive). The GI50 in the assay on SN12C was > 100 µM (inactive); with KM12, > 100 µM (inactive); in the assay with HCT-15 it was 19.3 µM; in the assay with SF-539 it was > 95.5 µM (inactive); in the assay with 786-0, > 87.7 µM (inactive); with OVCAR-3 it was > 100 µM (inactive). Further, the GI50 was > 43.8 µM (inactive) in the assay with LOX IMVI; > 56.6 µM (inactive) in the assay with NCI-H460; > 100 µM (inactive) with SNB-19; 19.9 µM (inactive) in the assay with SR; > 100 µM (inactive) in the assay with SF-295; > 46 µM (inactive) in the assay with CCRF-CEM.
